Where a name gives a salt, the structure may show the parent alone.

This is an account of results in patent publication US20080255062A1, “AXON REGENERATION FROM ADULT SENSORY NEURONS” (UNIVERSITY OF MANITOBA, priority 2007, published 2008).

One assay concerns adult sensory neurons. The assay can be described thus: Small molecule screen for axon regeneration and outgrowth in adult neural cell suspensions (Example 3). The class given is cell-based, Sprague-Dawley rat. The note with it: 10 μM drug, 24 hrs incubation; average of 4 fields from 3 wells (12 fields) ± SE; 30×30 μm grid. From the text: A single adult male Sprague-Dawley rat weighing between 250 g-450 g was anesthetized by isofluorane induction. After no response to external stimuli, the rat was sacrificed by guillotine.
Unnecessary satellite tissues and nerve fibers were cleaned from the DRG tissue immersed in the cell suspension medium at ambient room temperature using # 5 student forceps and a #10 scalpel blade under a Fisher Scientific Stereomaster® dissecting microscope (Stereomaster is a registered trademark of Fischer Scientific Co., LLC., Hampton, N.H., USA). The cleaned DRG tissue was placed into fresh cell suspension medium.
The cleaned DRG tissue was digested enzymatically to remove collagen fibers and proteinaceous material thereby releasing single DRG cells, as follows. […] The DRG tissue was then transferred to a fresh collagenase enzyme-cell suspension medium and incubated for another hour, after which the collagenase-digested DRG tissue was aspirated and washed twice in cell suspension medium pre-warmed to ambient room temperature.
The washed collagenase-digested DRG tissue was then placed into cell suspension medium to which a trypsin enzyme preparation (Prod. # T5266 from porcine pancreas; supplied by Sigma-Aldrich) was added to a final concentration of 0.25%, and then incubated for twenty minutes at 37° C. in a sterile atmosphere comprising 5% CO2. The trypsin action was stopped by the addition of 1 mL of pre-warmed HyClone fetal bovine serum […] (FBS Prod. # SH30070.01 supplied by Thermo Fisher Scientific, Napean, ON, Canada). The enzyme-digested DRG tissue was then washed twice with cell suspension medium supplemented with 10% FBS to ensure deactivation of trypsin activity. The enzyme-digested DRG tissue was then washed twice with cell suspension medium to remove the FBS.
The enzyme-digested DRG tissue was taken up from the cell suspension medium into a borosilicate glass Pasteur pipette (note that a borosilicate glass pipette was used to minimize DRG tissue sticking to the pipette) and was triturated about 15 times to disrupt the DRG tissue and to disassociate individual cells, after which the large tissue fragments were allowed to settle out of the suspension.
The supernatent containing satellite cells and debris was aspirated and discarded. […] The Ham's F12 medium containing 15% BSA served as a purification column for the supernatent and produced several upper layers containing dead cells, cellular debris and satellite layers over pellet of live neural cells. The upper layers were removed by aspiration with a Pasteur pipette. The cell pellet was resuspended in 1 mL of plating medium which comprised the cell suspension medium amended with 15 mM D-glucose (for a final concentation of 25 mM glucose). The 1 mL of suspended neural cells was then added to 19 mL of plating medium to make a 20-mL suspension of live neural cells.
600 μL of the neural cell suspension was removed to a 1.5 mL Eppendorf centrifuge tube.
The 600-μL reserved neural cell suspension was separated into three 200-μL aliquots which were then each plated into a well. The growth-factor-amended neural cell suspension was then plated into the remaining 93 wells in 200-μL aliquots. DMSO (Cat. # D2650 supplied by Sigma-Aldrich) was added to the three control wells (i.e., containing neural cell suspension that was not amended with growth factor supplements). The 96-well plate was then stored in a direct-heat humidified incubator (Form a CO2 Incubator supplied by Thermo Fisher Scientific) at 37° C. in a sterile atmosphere comprising 5% CO2.
(§1) High resolution and high pixel density digitized images of neurons were acquired. […] Total axon outgrowth was determined by placing a 30×30 μm grid over the image and counting the total number of intercepts with the grid line. Total neurite lengths were determined by the summing the lengths of all the neurites produced by an individual neuron.

Assay [1] concerns adult neurals cells isolated from four-month old ZDF rats. The experiment in a line: Axon outgrowth from adult neural cells of Zucker diabetic fatty rats (Example 5). Conditions: 24-h incubation, 25 mM glucose. The class given is cell-based, Zucker diabetic fatty rat. As to the method:
as §1

Assay [2] has as its system adult neural cells isolated from three-month-old STZ rats. The experiment in a line: Axon outgrowth from adult neural cells of streptozotocin diabetic rats (Example 4). Conditions: 24-h incubation, 25 mM glucose. The class given is cell-based, Sprague-Dawley rat (STZ diabetic). As to the method:
as §1

[3] abbreviates: at the dosages tested (0.1, 1.0, 10.0 μM).

As to `NCC(CC(=O)O)c1ccc(Cl)cc1` (stereo not shown) [Baclofen], the “Ave number of intersects per cell per well” value (“Ave number … per well” for short) in the assay on adult sensory neurons was determined as 9.8 ± 2.2.

With `CC(=O)O[C@]1(C(C)=O)CC[C@H]2[C@@H]3C=C(C)C4=CC(=O)CC[C@]4(C)[C@H]3CC[C@@]21C` [Megastrol acetate], the “Ave number … per well” value in the assay on adult sensory neurons was 9.2 ± 1.8.

In the case of `Cn1c(=O)c2c(ncn2C)n(C)c1=O` [Caffeine], the “Ave number … per well” value with adult sensory neurons is listed as 3.25 ± 1.6.

For the compound `CCC1(c2ccc(N)cc2)CCC(=O)NC1=O` (stereo not shown) [Aminoglutethimide], in the assay with adult sensory neurons, the “Ave number … per well” value came out at 5.9 ± 2.0.

For the compound `CCN(CC)C(C)CN1c2ccccc2Sc2ccccc21` (stereo not shown) [Ethopropazine HCL], the “axon outgrowth relative to the controls” value in assay [1] (10.0 μM) was “significantly increased”. Also, in the assay with adult sensory neurons, the “Ave number … per well” value is recorded as 4.4 ± 1.4.

Take `CC(C)NCC(O)COc1ccc(CC(N)=O)cc1` (stereo not shown) [Atenolol]: the “Ave number … per well” value in the assay with adult sensory neurons is on record as 6.2 ± 0.2.

Consider `CN[C@@H]1[C@H](O[C@H]2[C@H](O[C@H]3[C@H](O)[C@@H](O)[C@H](NC(=N)N)[C@@H](O)[C@@H]3NC(=N)N)O[C@@H](C)[C@]2(O)CO)O[C@@H](CO)[C@H](O)[C@H]1O` [Dihydrostreptomycin HCl], for which the “Ave number … per well” value in the assay on adult sensory neurons turned out to be 2.4 ± 0.6.

As for `O=S(=O)(O)CCS` [Mesna], the “Ave number … per well” value with adult sensory neurons is reported as 8.8 ± 3.9.

For `CC(C(=O)O)c1cccc(C(=O)c2ccccc2)c1` (stereo not shown) [Ketoprofen], the “Ave number … per well” value with adult sensory neurons turned out to be 7.9 ± 0.7.

For Aminopentanoic acid HCl, the “Ave number … per well” value with adult sensory neurons stood at 4.3 ± 0.4.

With `CCCC(CCC)C(=O)[O-].[Na+]` [Sodium valproate], the “Ave number … per well” value in the assay on adult sensory neurons amounted to 8.5 ± 1.8.

Consider `COc1ccccc1OCC(O)CO` (stereo not shown) [Guaifenesin], for which the “axon outgrowth relative to the controls” value in assay [2] (10.0 μM) and in assay [1] (0.1 μM) was “significantly increased” each time. Besides, the “Ave number … per well” value in the assay on adult sensory neurons was 5.0 ± 0.9.

For the compound Aminopentanoic acid, the “axon outgrowth relative to the controls” value in assay [2] (setting [3]) was “did not have significant effects”.

`CC(C)(Oc1ccc(CCNC(=O)c2ccc(Cl)cc2)cc1)C(=O)O` [Bezafibrate]: the “Ave number … per well” value in the assay on adult sensory neurons was determined as 6.9 ± 1.7.

For the compound `COc1c2occc2cc2ccc(=O)oc12` [Methoxsalen], the “Ave number … per well” value in the assay with adult sensory neurons came to 9.7 ± 2.0.

Regarding Hydrocortizone, in the assay on adult sensory neurons, the “Ave number … per well” value is 10.7 ± 1.7.

With `Nc1ccc(/N=N/c2ccccc2)c(N)n1` [Phenazopyridine HCl], in the assay on adult sensory neurons, the “Ave number … per well” value is 10.2 ± 0.2.

Regarding `CN1CCN(CC(=O)N2c3ccccc3C(=O)Nc3cccnc32)CC1` [Pirenzepine HCl], the “axon outgrowth relative to the controls” value in assay [2] (setting [3]) and in assay [1] (setting [3]) was “did not have significant effects” throughout. Further, the “Ave number … per well” value in the assay with adult sensory neurons came to 4.4 ± 0.7.

Regarding `CCCCOc1cc(C(=O)NCCN(CC)CC)c2ccccc2n1` [Dibucaine hydrochloride], the “Ave number … per well” value with adult sensory neurons is 2.0 ± 0.3.

For `C=N[C@@H](C(=O)N[C@@H]1C(=O)N2[C@@H]1SC(C)(C)[C@@H]2C(=O)O)c1ccccc1` [Metampicillin sodium], the “Ave number … per well” value with adult sensory neurons is given as 6.7 ± 1.3.
